Source: publication PMC8466373, “Plant-Derived and Dietary Hydroxybenzoic Acids—A Comprehensive Study of Structural, Anti-/Pro-Oxidant, Lipophilic, Antimicrobial, and Cytotoxic Activity in MDA-MB-231 and MCF-7 Cell Lines” (Nutrients, 2021)
≈ marks a conversion by molar mass, not a printed value. Where “and” joins values, the source holds several entries; their conditions need not be identical. Identical values can stand only once. Like-named read-outs stand apart in the source and are kept apart here. Marks after values point to notes of the source that are not given here.

Legend:
[1] = FRAP assay (ferric-reducing antioxidant power); type: biochemical; design: key: (-): Negative values were obtained for these acids; conditions: concentration of 50 μM, methanolic solutions
Procedure: FRAP assay was carried out as described in [42]. […] After 8 min of incubation at 23 °C, the absorbance at 595 nm was measured against the blank (containing 0.4 mL of methanol instead of the sample). Ferric-reducing antioxidant activity was expressed as Fe(II) ion equivalents (μM) using the calibration curve obtained for FeSO4 (the standard curve equation: y = 3.4303x − 0.1058; R^2 = 0.9984).

[2] = DPPH assay; type: biochemical; conditions: methanolic solutions, 60 min of reaction time
Procedure: DPPH assay was measured according to the method described by Rice-Evans. Appropriate volumes of methanolic solutions of the tested hydroxybenzoic acids (C = 30 μM) were mixed with methanol in test tubes to prepare a series of solutions of various concentrations (final volume 1 mL). Then, 2 mL of methanolic solution of DPPH^• (C = 60 μM) was added to each tube; the control contained methanol instead of the sample. The tubes with reaction mixtures were capped, vortexed, and left to stand for 60 min at 23 °C in the dark. The absorbance of the solutions was measured by the use of a Cary 5000 UV–Vis spectrophotometer (Santa Clara, CA, USA) at λ = 516 nm against pure methanol. […] The concentration of the tested hydroxybenzoic acids was plotted against the %I, and the IC50 values (antioxidant concentration that inhibited 50% of DPPH^• radicals) were calculated from the obtained scavenging curves.

[3] = ABTS assay; type: biochemical; conditions: 50 μM, methanolic solutions, 7 min of reaction time
Procedure: ABTS assay was conducted according to the procedure of Re et al.. […] The absorbance of the solutions was measured with a UV–Vis spectrophotometer at 734 nm against methanol (the blank). The ability to scavenge ABTS^•+ cation radicals was expressed as the %I of ABTS^•+ and calculated according to the aforementioned equation.

[4] = cited from earlier work; for inhibition: read-out: DPPH radical scavenging activity (%)
[5] = Cytotoxicity, neutral red (NR) assay; type: cell-based, human; conditions: human, 48 h treatment, neutral red assay
Procedure: Briefly, MCF-7 cells were cultured in EMEM (Biological Industries, Israel) medium supplemented with 10% fetal calf serum (Gibco). MDA-MB-231 cells were cultured in Leibovitz‘s L15 (Biological Industries, Beit HaEmek, Israel) medium supplemented with 10% fetal calf serum (Gibco). The MCF-7 cells were incubated in a 5% CO2 atmosphere at 37 °C, whereas the MDA-231 cells were incubated in a 100% air atmosphere at 37 °C.
Cytotoxicity evaluation was conducted to assess the impact of hydroxybenzoic acids on the proliferation of MCF-7 and MDA-MB-231 cells, which was measured via neutral red (NR) assay. In brief, cells were seeded in 96-well microplates (TPP, Switzerland) at a density of 2 × 10^4 cells/well in 100 μL of culture medium. At least three independent experiments in six replicate wells were conducted per concentration. Twenty-four hours after cell seeding, cells were treated with increasing concentrations of hydroxybenzoic acids (0.02–5 mM) for forty-eight hours. After treatment, cells were incubated for 3 h at 37 °C with 100 µL of neutral red solution (stock solution of NR) (Sigma-Aldrich), and then 5 mg/mL of PBS was diluted 1:100 in cell culture medium, incubated for 12 h at 37 °C, and centrifuged to remove any undissolved NR powder. […] After 15 min of gentle shaking, optical density was read at 540 nm with an Infinite M200 plate reader spectrophotometer (Tecan, Austria).

[6] = tested on: Escherichia coli (PCM 2857); experiment: MIC by serial dilution in agar medium; type: cell-based
Procedure: (§1) The following bacterial strains were used in this study: Escherichia coli (PCM 2857), Pseudomonas aeruginosa (PCM 2720), Bacillus subtilis (PCM 2850), Staphylococcus aureus (PCM 2267), Salmonella enteritidis (NCTC 4776), and Candida albicans (PCM 2566-FY). The microbial strains were bought from the Polish Collection of Microorganisms (Wroclaw, Poland) or the American Type Culture Collection. Bacteria (0.1 mL of the reconstituted suspension) were seeded onto sterile Mueller–Hinton agar plates (Biomaxima), to which previously suitable amounts of the tested compounds were added to give the desired concentration.
(§2) The MIC (minimal inhibitory concentration) was determined by serial dilution of the tested compound in an agar medium, to which the appropriate inoculum of microorganisms was then added and incubated. Escherichia coli, Pseudomonas aeruginosa, Staphylococcus aureus, Bacillus subtilis, Salmonella enteritidis, and Candida albicans were grown overnight and then resuspended in physiological saline to an optical density at 600 nm (OD = 600) of 0.60, corresponding to 5.0 × 10^8 CFU/mL. Bacteria (0.1 mL of the reconstituted suspension) were seeded onto sterile Mueller–Hinton agar plates, to which previously suitable amounts of the tested compounds were added to reach the desired concentration. Tested chemicals were dissolved in DMSO solution. Negative controls were agar plates, to which DMSO was added, while positive controls were plates with gentamycin (in the case of bacteria) or flucanozole (in the case of fungi). The plates were incubated at 37 °C for 24 h. The lowest concentration without visible bacterial growth was determined as the MIC.

[7] = tested on: Pseudomonas aeruginosa (PCM 2720); experiment: MIC by serial dilution in agar medium; type: cell-based
Procedure: as §1, §2

[8] = tested on: Staphylococcus aureus (PCM 2267); experiment: MIC by serial dilution in agar medium; type: cell-based
Procedure: as §1, §2

[9] = tested on: Candida albicans (PCM 2566-FY); experiment: MIC by serial dilution in agar medium; type: cell-based
Procedure: as §1, §2

[10] = tested on: Bacillus subtilis (PCM 2850); experiment: MIC by serial dilution in agar medium; type: cell-based
Procedure: as §1, §2

[11] = CUPRAC assay (cupric-reducing antioxidant capacity); type: biochemical; conditions: concentration of 50 μM, methanolic solutions
Procedure: CUPRAC assay was carried out according to the method described in [44]. First, […] of CuCl2 (C = 10 mM; in water) was mixed with […] of ammonium acetate (pH 7; in water) and neocuproine (C = 75 mM; in ethanol). […] The samples were mixed and incubated for 60 min at room temperature (23 °C). The absorbance of the samples was measured with a UV–Vis spectrophotometer at λ = 450 nm against a blank (containing 0.5 mL of methanol instead of the sample). […] R^2 = 0.9919).

[12] = C = 10 μM, CDPPH = 100 μM, t = 30 min
[13] = C = 15 μM, CDPPH = 60 μM, t = 30 min
[14] = CDPPH = 1 mM, t = 20 min, read-out: DPPH, IC50
[15] = read-out: Cytotoxicity (mM) in Cell Line MCF-7, IC50
[16] = read-out: Cytotoxicity (mM) in Cell Line MDA-MB-231, IC50
[17] = CDPPH = 60 μM, t = 30 min, read-out: DPPH, IC50
[18] = CDPPH = 90 μM, t = 30 min, read-out: DPPH, IC50
[19] = MCF-7 cells (breast adenocarcinoma), read-out: Cytotoxicity (mM) in Cell Line MCF-7, IC50
[20] = MDA-MB-231 cells (breast adenocarcinoma), read-out: Cytotoxicity (mM) in Cell Line MDA-MB-231, IC50

Compound	FRAP [1]	IC50 [2] [µM]	Inhibition of ABTS•+ radicals (%I) [3] [%]	inhibition [4, 12] [%]	inhibition [4, 13] [%]	IC50 [4, 14] [µM]	IC50 at 48 h [5, 15] [mM]	IC50 at 48 h [5, 16] [mM]	MIC ([6]; read-out: MIC) [µg/mL]	MIC ([7]; read-out: MIC) [µg/mL]	MIC ([8]; read-out: MIC) [µg/mL]	MIC ([9]; read-out: MIC) [µg/mL]	MIC ([10]; read-out: MIC) [µg/mL]	CUPRAC assay: Trolox equivalent [11] [µM]	IC50 [4, 17] [µM]	IC50 [4, 18] [µM]	IC50 at 48 h [5, 19] [mM]	IC50 at 48 h [5, 20] [mM]	other results
O=C(O)c1cc(O)c(O)c(O)c1 [3,4,5-THB, 3,4,5-trihydroxybenzoic acid]	158.10 µM Fe^2+ and 158.10 ± 14.81 µM Fe^2+	2.42 ± 0.08	79.50	~70	88.5	0.0237	0.44	0.36	3000 (≈ 17.6 mM)	4000 (≈ 23.5 mM)	6000 (≈ 35.3 mM)	3000 (≈ 17.6 mM)	3000 (≈ 17.6 mM)	73.85					inhibition ([4]; C ≈ 0.7 mM, CDPPH = 200 μM, t = 30 min): 40%; IC50 ([4]; after 30 min of incubation with a free radical, read-out: DPPH IC50): 4.2 µM
O=C(O)c1ccc(O)c(O)c1 [3,4-DHB, 3,4-dihydroxybenzoic acid]	44.22 µM Fe^2+ and 44.22 ± 9.38 µM Fe^2+	5.24 ± 0.95	74.51	~70	~88.5	0.0574	> 5	> 5						60.53	15.8				IC50 ([4]; CDPPH = 50 μM, t = 30 min, read-out: DPPH, IC50): 3.83 µM; MIC [6]: 2000 µg/mL (≈ 13 mM); MIC [7]: 2000 µg/mL (≈ 13 mM); MIC [8]: 2000 µg/mL (≈ 13 mM); MIC [9]: 2000 µg/mL (≈ 13 mM); MIC [10]: 2000 µg/mL (≈ 13 mM)
O=C(O)c1cc(O)cc(O)c1 [3,5-DHB, 3,5-dihydroxybenzoic acid]	(-) *	> 1000	60.39						2000 (≈ 13 mM)	3000 (≈ 19.5 mM)	2000 (≈ 13 mM)	2000 (≈ 13 mM)	2000 (≈ 13 mM)			385	> 5	> 5	
O=C(O)c1cccc(O)c1O [2,3-DHB, 2,3-Dihydroxybenzoic acid]	173.79 µM Fe^2+ and 173.79 ± 39.06 µM Fe^2+	5.86 ± 0.64	86.40						5000 (≈ 32.4 mM)	5000 (≈ 32.4 mM)	5000 (≈ 32.4 mM)	5000 (≈ 32.4 mM)	5000 (≈ 32.4 mM)	60.83			> 5	4.1	
O=C(O)c1c(O)cccc1O [2,6-DHB, 2,6-dihydroxybenzoic acid]	(-) *	209 ± 0.98	8.12						3000 (≈ 19.5 mM)	4000 (≈ 26 mM)	5000 (≈ 32.4 mM)	3000 (≈ 19.5 mM)	3000 (≈ 19.5 mM)				> 5	3.97	IC50 ([4]; CDPPH = 500 μM, t = 30 min, read-out: DPPH, IC50): 232 µM
O=C(O)c1cc(O)ccc1O [2,5-DHB, 2,5-dihydroxybenzoic acid]	236.00 µM Fe^2+ and 236.00 ± 6.31 µM Fe^2+	4.99 ± 0.79	80.11			0.0292			3000 (≈ 19.5 mM)	5000 (≈ 32.4 mM)	5000 (≈ 32.4 mM)	5000 (≈ 32.4 mM)	3000 (≈ 19.5 mM)	68.77	6.3	37	> 5	4.39	IC50 ([4]; CDPPH = 60 μM, t = 60 min, read-out: DPPH, IC50): 4.95 µM
